From patent US9745310B2 (SK BIOPHARMACEUTICALS CO., LTD., priority 2015, dated 2017) come the findings set out here.

Sequence of human mGluR5 receptor (P41594 21-1212): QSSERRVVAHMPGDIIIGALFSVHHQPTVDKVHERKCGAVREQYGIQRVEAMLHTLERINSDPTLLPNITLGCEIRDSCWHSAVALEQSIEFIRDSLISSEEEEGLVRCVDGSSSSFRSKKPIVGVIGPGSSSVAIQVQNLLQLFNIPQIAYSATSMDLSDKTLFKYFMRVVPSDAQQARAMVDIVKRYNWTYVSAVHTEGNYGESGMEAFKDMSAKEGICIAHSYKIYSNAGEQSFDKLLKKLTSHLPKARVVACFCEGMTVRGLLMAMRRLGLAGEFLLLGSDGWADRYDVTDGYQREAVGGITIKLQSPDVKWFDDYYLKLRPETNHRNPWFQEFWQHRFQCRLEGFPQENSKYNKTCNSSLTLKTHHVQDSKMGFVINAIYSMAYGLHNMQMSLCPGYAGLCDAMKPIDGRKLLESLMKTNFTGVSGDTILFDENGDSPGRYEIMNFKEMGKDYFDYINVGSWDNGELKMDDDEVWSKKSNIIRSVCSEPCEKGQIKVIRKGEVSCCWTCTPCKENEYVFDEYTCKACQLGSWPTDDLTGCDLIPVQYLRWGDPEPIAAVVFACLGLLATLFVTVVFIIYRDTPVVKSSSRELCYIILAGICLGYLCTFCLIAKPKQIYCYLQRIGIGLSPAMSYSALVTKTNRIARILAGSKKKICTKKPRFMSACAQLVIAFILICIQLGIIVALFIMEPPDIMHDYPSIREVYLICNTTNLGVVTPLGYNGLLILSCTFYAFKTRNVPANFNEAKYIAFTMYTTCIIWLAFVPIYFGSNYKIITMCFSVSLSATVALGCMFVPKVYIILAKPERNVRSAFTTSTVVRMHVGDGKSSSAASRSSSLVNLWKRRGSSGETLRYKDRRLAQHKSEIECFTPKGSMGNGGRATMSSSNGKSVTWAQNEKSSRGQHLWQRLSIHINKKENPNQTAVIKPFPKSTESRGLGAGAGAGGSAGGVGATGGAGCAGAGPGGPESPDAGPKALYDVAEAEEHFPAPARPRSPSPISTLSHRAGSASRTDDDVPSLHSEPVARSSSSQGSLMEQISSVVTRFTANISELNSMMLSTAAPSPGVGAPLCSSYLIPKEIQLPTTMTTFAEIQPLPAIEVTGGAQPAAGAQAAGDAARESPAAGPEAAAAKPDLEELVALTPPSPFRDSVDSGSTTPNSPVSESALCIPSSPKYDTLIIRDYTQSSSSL

The assay has as its target human mGluR5 receptor (Homo sapiens (Human), UniProt P41594). In words: Calcium influx assay based on fluorescence (mGluR5 PAM activity). Particulars: human mGluR5 receptor-overexpressed HEK293 cell line; L-glutamate EC20; Fluo-4, FLIPR. On the procedure:
Efficacy as a positive allosteric modulator (PAM) of mGluR5 of the compounds of the Examples was tested as follows:
Calcium Influx Assay Based on Fluorescence
Ca^2+ (calcium) influx assay is an experiment for measuring the activity of a positive allosteric modulator of mGluR5 receptor in which human mGluR5 receptor-overexpressed HEK293 cell line is used. The day before the experiment, cells were prepared in a cell culture medium (DMEM, 5% FBS) with the density of 80,000/well, and 100 μl of cells were dispensed into each well of a poly-D-lysine-coated 96-well plate. Cells were incubated in a 5% CO2, 37° C. incubator. The next day, the cell culture medium was removed from the plate, and 100 μl of 1× Fluo-4 calcium indicator diluted with a buffer (1× Hank's balanced salt solution, 20 mM HEPES, 2.5 mM probenecid) were added to each well and incubated at 37° C. for 1 hour. The compound stock solutions were prepared in 100% DMSO, and the compounds were serially diluted with a ¼ dilution to 6 or 7 concentrations (final concentration was 10 μM to 10 nM). The diluted compound solutions were added to the plate with 0.1 to 0.2% of final DMSO concentration. 1 hour after the addition of Fluo-4 calcium indicator, L-glutamate (EC20 concentration) and the test compound solutions were added to the plate, and Ca^2+ reaction was then measured by FLIPR at room temperature. The activity of the compounds was standardized on the basis of the results of maximum value-minimum value of fluorescent reaction, and the activity value was calculated on the basis that no activity on glutamate EC20 is 0% and the reaction to glutamate maximum value is 100%.
For orientation: EC50 means the concentration that produces a half-maximal response. In the case of `Fc1ccc(OCc2cn3cc(-c4ccc(F)nc4)cnc3n2)cc1` [Example 51, 2-[(4-fluorophenoxy)methyl]-6-(6-fluoro-3-pyridyl)imidazo[1,2-a]pyrimidine], the EC50 was in the range of 0.1 to 0.5 µM.

As to `Oc1ccccc1-c1cnc2nc(COc3ccnc(F)c3)cn2c1` [Example 169, 6-(2-hydroxyphenyl)-2-(2-fluoropyridin-4-yloxymethyl)imidazo[1,2-a]pyrimidine], the half-maximal effective concentration (EC50) lay in the range of 0.1 to 0.5 µM.

For `Fc1ccc(OCc2cn3cc(-c4ccccc4)cnc3n2)cc1` [Example 56, 2-[(4-fluorophenoxy)methyl]-6-phenyl-imidazo[1,2-a]pyrimidine], the EC50 fell in the range of 0.1 to 0.5 µM.

For `Fc1cccc(OCc2cn3cc(-c4ccnc(F)c4)cnc3n2)c1` [Example 79, 2-[(3-fluorophenoxy)methyl]-6-(2-fluoro-4-pyridyl)imidazo[1,2-a]pyrimidine], the 50% effective concentration (EC50) was in the range of 0.1 to 0.5 µM.

In the case of `Fc1ccnc(OCc2cn3cc(-c4ccc(F)cc4F)cnc3n2)c1` [Example 120, 6-(2,4-difluorophenyl)-2-[(4-fluoro-2-pyridyl)oxymethyl)imidazo[1,2-a]pyrimidine], the half-maximal effective concentration (EC50) is 0.1 to 0.5 µM.

On to `Fc1cc(-c2cnc3nc(COc4ccccc4)cn3c2)ccn1` [Example 35, 6-(2-fluoropyridin-4-yl)-2-phenoxymethylimidazo[1,2-a]pyrimidine], for which the half-maximal effective concentration (EC50) is 0.1 to 0.5 µM.

With `Oc1cc(F)ccc1-c1cnc2nc(COc3cccc(F)c3)cn2c1` [Example 57, 5-fluoro-2-[2-[(3-fluorophenoxy)methyl]imidazo[1,2-a]pyrimidin-6-yl]phenol], the EC50 fell in the range of 0.1 to 0.5 µM.

In the case of `Fc1ccc(-c2cnc3nc(COc4ccccc4)cn3c2)c2c1OCO2` [Example 24, 6-(7-fluorobenzo[1,3]dioxol-4-yl)-2-phenoxymethylimidazo[1,2-a]pyrimidine], the EC50 lay within 0.1 to 0.5 µM.

For `COc1cc(C#N)ccc1-c1cnc2nc(COc3ccc(F)cn3)cn2c1` [Example 137, 4-[2-[(5-fluoro-2-pyridyl)oxymethyl]imidazo[1,2-a]pyrimidin-6-yl]-3-methoxy-benzonitrile], the concentration for a half-maximal effect (EC50) was 0.1 to 0.5 µM.

On to `Fc1ccc(-c2cnc3nc(COc4ccccn4)cn3c2)c2c1OCO2` [Example 110, 6-(7-fluoro-2H-benzo[1,3]dioxol-4-yl)-2-(pyridin-2-yloxymethyl)imidazo[1,2-a]pyrimidine], for which the EC50 is 0.1 to 0.5 µM.

As for `Cc1ccc(-c2cnc3nc(COc4ccccn4)cn3c2)c(F)c1` [Example 117, 6-(2-fluoro-4-methyl-phenyl)-2-(2-pyridyloxymethyl)imidazo[1,2-a]pyrimidine], the concentration giving a half-maximal response (EC50) fell in the range of 0.1 to 0.5 µM.

Consider `Oc1ccccc1-c1cnc2nc(COc3ccc(F)cc3)cn2c1` [Example 63, 2-[2-[(4-fluorophenoxy)methyl]imidazo[1,2-a]pyrimidin-6-yl]phenol], for which the EC50 is 0.1 to 0.5 µM.

As to `Nc1cc(F)c(F)cc1-c1cnc2nc(COc3ccc(F)cc3)cn2c1` [Example 73, 4,5-difluoro-2-[2-[(4-fluorophenoxy)methyl]imidazo[1,2-a]pyrimidin-6-yl]aniline], the concentration giving a half-maximal response (EC50) was in the range of 0.5 to 1 µM.

Consider `Fc1cncc(OCc2cn3cc(-c4ccc(F)cc4C(F)(F)F)cnc3n2)c1` [Example 173, 2-[(5-fluoro-3-pyridyl)oxymethyl]-6-[4-fluoro-2-(trifluoromethyl)phenyl]imidazo[1,2-a]pyrimidine], for which the EC50 lay in the range of 0.5 to 1 µM.

In the case of `Fc1cc(OCc2cn3cc(-c4cccc(F)c4F)cnc3n2)ccn1` [Example 165, 6-(2,3-difluorophenyl)-2-(2-fluoropyridin-4-yloxymethyl)imidazo[1,2-a]pyrimidine], the EC50 is 0.1 to 0.5 µM.

In the case of `OCc1cc(F)ccc1-c1cnc2nc(COc3cccc(F)c3)cn2c1` [Example 96, [5-fluoro-2-[2-[(3-fluorophenoxy)methyl]imidazo[1,2-a]pyrimidin-6-yl]phenyl]methanol], the EC50 is 0.1 to 0.5 µM.

With `N#Cc1ccc(-c2cnc3nc(COc4ccccn4)cn3c2)cc1` [Example 140, 4-[2-(2-pyridyloxymethyl)imidazo[1,2-a]pyrimidin-6-yl]benzonitrile], the EC50 lay in the range of 0.1 to 0.5 µM.

In the case of `Fc1cccc(OCc2cn3cc(-c4ccc(F)cc4C(F)(F)F)cnc3n2)c1` [Example 94, 2-[(3-fluorophenoxy)methyl]-6-[4-fluoro-2-(trifluoromethyl)phenyl]imidazo[1,2-a]pyrimidine], the EC50 is 0.1 to 0.5 µM.

As for `Cc1cc(F)ccc1-c1cnc2nc(COc3ccc(F)cc3)cn2c1` [Example 48, 6-(4-fluoro-2-methylphenyl)-2-(4-fluorophenoxymethyl)imidazo[1,2-a]pyrimidine], the half-maximal effective concentration (EC50) was 0.1 to 0.5 µM.

As for `Fc1ccc(OCc2cn3cc(-c4ccc(F)cc4CCl)cnc3n2)cc1` [Example 197, 6-[2-(chloromethyl)-4-fluoro-phenyl]-2-[(4-fluorophenoxy)methyl)imidazo[1,2-a]pyrimidine], the EC50 was 0.1 to 0.5 µM.

As for `Fc1ccc(-c2cnc3nc(COc4ccnc(F)c4)cn3c2)c(C(F)(F)F)c1` [Example 174, 2-[(2-fluoro-4-pyridyl)oxymethyl]-6-[4-fluoro-2-(trifluoromethyl)phenyl]imidazo[1,2-a]pyrimidine], the EC50 fell in the range of 0.1 to 0.5 µM.

`CC(C)c1ccccc1-c1cnc2nc(COc3ccccn3)cn2c1` [Example 143, 6-(2-isopropylphenyl)-2-(2-pyridyloxymethyl)imidazo[1,2-a]pyrimidine]: the EC50 was in the range of 0.5 to 1 µM.

`Cc1cccc(C)c1-c1cnc2nc(COc3ccc(F)cc3)cn2c1` [Example 50, 6-(2,6-dimethylphenyl)-2-(4-fluorophenoxymethyl)imidazo[1,2-a]pyrimidine]: the EC50 is 0.5 to 1 µM.

For `Fc1ccnc(OCc2cn3cc(-c4cccc(F)c4F)cnc3n2)c1` [Example 122, 6-(2,3-difluorophenyl)-2-[(4-fluoro-2-pyridyl)oxymethyl)imidazo[1,2-a]pyrimidine], the EC50 lay within 0.5 to 1 µM.

For the molecule `Fc1ccc(OCc2cn3cc(-c4ccc(C(F)(F)F)nc4)cnc3n2)nc1` [Example 131, 2-[(5-fluoro-2-pyridyl)oxymethyl]-6-[6-(trifluoromethyl)-3-pyridyl]imidazo[1,2-a]pyrimidine], the half-maximal effective concentration (EC50) lay within 0.1 to 0.5 µM.

`Clc1ccc(-c2cnc3nc(COc4ccccc4)cn3c2)cn1` [Example 34, 6-(6-chloropyridin-3-yl)-2-phenoxymethylimidazo[1,2-a]pyrimidine]: the 50% effective concentration (EC50) was 0.1 to 0.5 µM.

As to `Nc1cc(F)ccc1-c1cnc2nc(COc3cncc(F)c3)cn2c1` [Example 175, 5-fluoro-2-[2-[(5-fluoro-3-pyridyl)oxymethyl]imidazo[1,2-a]pyrimidin-6-yl]aniline], the half-maximal effective concentration (EC50) was 0.5 to 1 µM.

With `Cc1cc(Cl)ccc1-c1cnc2nc(COc3ccc(F)cn3)cn2c1` [Example 127, 6-(4-chloro-2-methyl-phenyl)-2-[(5-fluoro-2-pyridyl)oxymethyl)imidazo[1,2-a]pyrimidine], the 50% effective concentration (EC50) fell in the range of 0.1 to 0.5 µM.

As for `Fc1ccc(-c2cnc3nc(COc4ccccc4)cn3n2)c(F)c1` [Example 178, 2-(2,4-difluorophenyl)-6-(phenoxymethyl)imidazo[1,2-b][1,2,4]triazine], the 50% effective concentration (EC50) lay within 0.1 to 0.5 µM.

For the molecule `Fc1ccc(-c2cnc3nc(COc4ccccc4)cn3c2)nc1` [Example 40, 6-(5-fluoro-2-pyridyl)-2-phenoxymethylimidazo[1,2-a]pyrimidine], the EC50 lay within 0.1 to 0.5 µM.

Turning to `Fc1ccc(OCc2cn3cc(-c4ccc(C(F)(F)F)nc4)cnc3n2)cc1` [Example 65, 2-[(4-fluorophenoxy)methyl]-6-[6-(trifluoromethyl)-3-pyridyl]imidazo[1,2-a]pyrimidine], the half-maximal effective concentration (EC50) was in the range of 0.1 to 0.5 µM.

With `Oc1ccc(OCc2cn3cc(-c4ccc(F)cc4)cnc3n2)cc1` [Example 52, 4-[[6-(4-fluorophenyl)imidazo[1,2-a]pyrimidin-2-yl]methoxy]phenol], the half-maximal effective concentration (EC50) was 0.1 to 0.5 µM.

For the molecule `Cc1cc(F)ccc1-c1cnc2nc(COc3ccc(F)nc3)cn2c1` [Example 158, 6-(4-fluoro-2-methylphenyl)-2-(6-fluoropyridin-3-yloxymethyl)imidazo[1,2-a]pyrimidine], the EC50 fell in the range of 0.1 to 0.5 µM.

For `Fc1ccc(-c2cnc3nc(COc4ccnc(F)c4)cn3n2)c(F)c1` [Example 183, 2-(2,4-difluorophenyl)-6-((2-fluoropyridin-4-yloxy)methyl)imidazo[1,2-b][1,2,4]triazine], the EC50 lay in the range of 0.1 to 0.5 µM.

For `COc1cc(F)ccc1-c1cnc2nc(COc3ccncc3)cn2c1` [Example 151, 6-(4-fluoro-2-methoxyphenyl)-2-(pyridin-4-yloxymethyl)imidazo[1,2-a]pyrimidine], the EC50 lay in the range of 0.1 to 0.5 µM.

Consider `Cc1ccc(-c2cnc3nc(COc4ccc(F)cc4)cn3c2)cc1N` [Example 72, 5-[2-[(4-fluorophenoxy)methyl]imidazo[1,2-a]pyrimidin-6-yl]-2-methyl-aniline], for which the half-maximal effective concentration (EC50) was 0.1 to 0.5 µM.

As for `Fc1ccc(-c2cnc3nc(COc4cccnc4)cn3c2)c(F)c1` [Example 148, 6-(2,4-difluorophenyl)-2-(pyridin-3-yloxymethyl)imidazo[1,2-a]pyrimidine], the EC50 lay within 0.5 to 1 µM.

In the case of `Cc1c(F)cccc1-c1cnc2nc(COc3ccccn3)cn2n1` [Example 187, 2-(3-fluoro-2-methyl-phenyl)-6-(2-pyridyloxymethyl)imidazo[1,2-b][1,2,4]triazine], the concentration giving a half-maximal response (EC50) fell in the range of 0.1 to 0.5 µM.
